Measured values reported in patent EP4624457A1, “I[…] DERIVATIVES, I[…] NEURODEGENERATIVE DISEASES” (Centre National de la Recherche Scientifique, priority 2024, dated 2025).

Experiments:
[1] = target: T1, human α7 nAChR subtype (Homo sapiens, UniProt P36544); conditions: antagonistic activity, TEVC; value (95% CI); cited from earlier work
T1 construct: expressed in transfected cells; host or cells: Xenopus laevis oocytes injected with mRNA

[2] = target: muscle (α1)2βγδ nAChR subtype (Torpedo marmorata, UniProt P02711+Q6S3H8+Q6S3H9); conditions: antagonistic activity, TEVC; value (95% CI); read-out: nAChR subtype (nM; 95% CI) α12β1γδ (Torpedo); cited from earlier work
[3] = target: α4β2 nAChR (Homo sapiens, UniProt P17787+P43681); conditions: antagonistic activity, TEVC; value (95% CI); read-out: nAChR subtype (nM; 95% CI) α4β2 (human); cited from earlier work
[4] = system: cancer cell lines; conditions: literature (Tang et al. 2023; Fribley et al. 2019); cited from earlier work
[5] = target: T1, human α7 nAChR subtype; experiment: Two-electrode voltage clamp electrophysiology on Xenopus laevis oocytes expressing the α7 nAChR; assay type: cell-based
Text: The emerging cyclic imines toxins (CiTXs) of global distribution across coastal environments that are produced by dinoflagellates move fast up the human food chain through shellfish. The CiTX family includes 44 compounds: 7 gymnodimines (A-E, 12-methylgymnodimine and 16-desmethyl gymnodimine D), 16 spirolides (A-D, G-I, 13-desmethyl spirolide-C, 27-Hydroxy-13-desmethyl spirolide-C, 13,19-didesmethyl spirolide-C, 20-hydroxy-13,19-didesmethyl spirolide- C, 27-hydroxy-13,19-spirolide-C, 27-Oxo-13,19-didesmethyl spirolide-C, 13-desmethyl spirolide-D, 20-hydroxy-13,19-didesmethyl spirolide-D and 20-methyl spirolide-G), 8 pinnatoxins (A-H), 3 pteriatoxins (A-C), 6 prorocentrolides (A-B, 4- hydroxyprorocentrolide, 9,51-dihydro prorocentrolide, 30-sulfate prorocentrolide and 14-O-acetyl-4-hydroxyprorocentrolide), 1 spiroprorocentrimine, 2 portimines (A and B), and 1 kabirimine, (Aráoz et al. (2020) Cyclic imine toxins survey in coastal european shellfish samples: Bioaccumulation and mode of action of 28-O-palmitoyl ester of pinnatoxin-G. First report of portimine-A bioaccumulation. Harmful Algae, 98 [1]). The spiroimine moiety is the major feature characterizing cyclic imine toxins. The exception to this rule is prorocentrolides in which a hexahydroisoquinoline group replaces the spiroimine motif, (Torigoe et al. (1988) Prorocentrolide, a toxic nitrogenous macrocycle from a marine dinoflagellate, Prorocentrum-lima. Journal of the American Chemical Society, 110:7876-7877 [2]). Portimines display a 5-membered cyclic imine ring; gymnodimines, prorocentrolides, spiroprorocentrimines and kabirimine present a 6-membered imine ring, while spirolides, pinnatoxins and pteriatoxins display a 7-membered imine ring. Cyclic imine toxins are fast acting neurotoxins that, when administered intraperitoneally or by gavage at lethal doses, kill mice by respiratory arrest within minutes following blockade of neuromuscular nicotinic acetylcholine receptors (nAChR). The mode of action of several cyclic imines on nAChRs has been characterized, namely: gymnodimine-A, 13- desmethyl spirolide- C, 13,19-didesmethyl spirolide-C, 20-methyl spirolide-G, pinnatoxin-A, pinnatoxin-G, prorocentrolide-A and portimine, (Lamoise et al. (2017) Physico-chemical and functional characterization of portimine purified from Vulcanodinium rugosum strain IFR-VRU-01. In "Marine and Fresh-Water Harmful Algae". Proceedings of the 17th International Conference on Harmful Algae (Proença, L.A.O. and Hallegraeff, G. eds) pp. 126-129 ISSHA and IOC/UNESCO, Florianapolis; Molgó et al. (2017) Cyclic imine toxins from dinoflagellates: a growing family of potent antagonists of the nicotinic acetylcholine receptors. Journal of Neurochemistry, 142:41-51 [4]). They are potent antagonists of muscular and neuronal nicotinic acetylcholine receptors with pinnatoxin-A displaying picomolar affinities towards the α7 nicotinic acetylcholine receptor subtype (Aráoz et al. (2011) Total synthesis of pinnatoxins A and G and revision of the mode of action of pinnatoxin A. Journal of the American Chemical Society 133(27):10499-10511 [5]). In contrast, prorocentrolide and portimine show micromolar affinities towards the α7 nicotinic acetylcholine receptor subtype (Lamoise et al. (2017), Stivala et al. (2015) Synthesis and biology of cyclic imine toxins, an emerging class of potent, globally distributed marine toxins. Natural Product Reports, 32(3):411-435 [6]) (Table1). Table 1. Antagonistic activity of CiTX (Two-Electrodes Voltage Clamp electrophysiology).
• Figure 1 represents the chemical structure of ingrilimine according to compound (Illa) formula. • Figure 2 represents the cytotoxic activity of ingrilimine. A2780 ovarian and HT29 colorectal carcinoma cells were grown in RPMI 1640 supplemented with 10% fetal calf serum (FCS) and 1% glutamine. […]

[6] = system: 3T3, L929, 4T1 and Caco-2 cells; conditions: normal cell lines 3T3 and L929, tumor cell line 4T1, Caco-2 cells; cited from earlier work
[7] = system: P338 leukemia cell line; conditions: mouse P338 leukemia cell line; cited from earlier work

Sequence of muscle (α1)2βγδ nAChR subtype (P02711 25-461): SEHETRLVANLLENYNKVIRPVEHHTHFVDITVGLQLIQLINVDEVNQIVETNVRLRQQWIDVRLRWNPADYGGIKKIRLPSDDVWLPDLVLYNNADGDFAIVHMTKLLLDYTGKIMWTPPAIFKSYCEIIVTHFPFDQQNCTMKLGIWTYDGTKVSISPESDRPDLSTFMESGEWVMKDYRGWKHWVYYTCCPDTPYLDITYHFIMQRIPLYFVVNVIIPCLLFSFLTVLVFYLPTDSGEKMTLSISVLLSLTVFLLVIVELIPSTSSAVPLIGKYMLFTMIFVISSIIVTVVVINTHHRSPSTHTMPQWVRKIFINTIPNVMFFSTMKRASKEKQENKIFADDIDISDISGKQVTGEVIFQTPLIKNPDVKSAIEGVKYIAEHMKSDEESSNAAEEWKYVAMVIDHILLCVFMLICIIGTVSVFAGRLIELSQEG
Sequence of muscle (α1)2βγδ nAChR subtype (Q6S3H9 entry or part of it): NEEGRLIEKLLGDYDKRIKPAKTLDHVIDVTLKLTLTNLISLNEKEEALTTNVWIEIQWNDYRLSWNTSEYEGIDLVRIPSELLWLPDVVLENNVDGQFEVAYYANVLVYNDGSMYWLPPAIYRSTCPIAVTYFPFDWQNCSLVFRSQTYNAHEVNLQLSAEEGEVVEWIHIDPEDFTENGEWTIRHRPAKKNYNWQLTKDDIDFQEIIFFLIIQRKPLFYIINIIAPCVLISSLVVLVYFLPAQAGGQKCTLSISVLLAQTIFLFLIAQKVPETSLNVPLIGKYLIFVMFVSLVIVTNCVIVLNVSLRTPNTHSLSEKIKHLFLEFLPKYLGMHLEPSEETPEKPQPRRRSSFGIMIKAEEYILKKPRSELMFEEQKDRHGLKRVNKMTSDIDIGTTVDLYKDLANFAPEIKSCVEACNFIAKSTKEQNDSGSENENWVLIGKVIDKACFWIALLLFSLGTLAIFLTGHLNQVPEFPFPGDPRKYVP
Sequence of muscle (α1)2βγδ nAChR subtype (Q6S3H8 entry or part of it): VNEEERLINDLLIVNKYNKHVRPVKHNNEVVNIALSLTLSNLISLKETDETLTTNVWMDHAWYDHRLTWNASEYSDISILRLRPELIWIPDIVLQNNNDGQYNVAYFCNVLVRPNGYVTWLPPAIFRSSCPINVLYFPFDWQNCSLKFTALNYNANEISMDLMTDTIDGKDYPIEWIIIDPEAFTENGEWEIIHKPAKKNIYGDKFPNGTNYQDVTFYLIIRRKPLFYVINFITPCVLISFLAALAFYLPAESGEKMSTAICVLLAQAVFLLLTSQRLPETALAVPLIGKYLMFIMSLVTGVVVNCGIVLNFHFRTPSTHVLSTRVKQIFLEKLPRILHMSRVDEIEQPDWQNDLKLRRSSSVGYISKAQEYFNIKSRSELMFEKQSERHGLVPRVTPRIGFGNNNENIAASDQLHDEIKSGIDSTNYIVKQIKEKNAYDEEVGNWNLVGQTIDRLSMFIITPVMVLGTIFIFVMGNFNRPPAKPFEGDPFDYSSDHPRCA
Sequence of muscle (α1)2βγδ nAChR subtype (Q6S3I0 entry or part of it, further chain): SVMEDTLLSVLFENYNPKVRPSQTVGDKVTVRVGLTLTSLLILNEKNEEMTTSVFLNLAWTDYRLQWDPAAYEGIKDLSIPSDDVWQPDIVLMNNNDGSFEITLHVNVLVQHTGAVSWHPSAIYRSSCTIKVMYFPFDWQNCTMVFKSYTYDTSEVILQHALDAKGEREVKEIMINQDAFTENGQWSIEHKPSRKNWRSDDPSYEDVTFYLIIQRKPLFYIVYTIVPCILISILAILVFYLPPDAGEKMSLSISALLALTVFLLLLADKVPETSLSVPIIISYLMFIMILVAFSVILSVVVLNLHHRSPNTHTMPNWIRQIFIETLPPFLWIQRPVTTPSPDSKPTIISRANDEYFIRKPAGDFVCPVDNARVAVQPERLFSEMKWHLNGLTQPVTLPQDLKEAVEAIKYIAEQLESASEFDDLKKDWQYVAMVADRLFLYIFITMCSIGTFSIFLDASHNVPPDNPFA
Sequence of α4β2 nAChR (P43681 29-627): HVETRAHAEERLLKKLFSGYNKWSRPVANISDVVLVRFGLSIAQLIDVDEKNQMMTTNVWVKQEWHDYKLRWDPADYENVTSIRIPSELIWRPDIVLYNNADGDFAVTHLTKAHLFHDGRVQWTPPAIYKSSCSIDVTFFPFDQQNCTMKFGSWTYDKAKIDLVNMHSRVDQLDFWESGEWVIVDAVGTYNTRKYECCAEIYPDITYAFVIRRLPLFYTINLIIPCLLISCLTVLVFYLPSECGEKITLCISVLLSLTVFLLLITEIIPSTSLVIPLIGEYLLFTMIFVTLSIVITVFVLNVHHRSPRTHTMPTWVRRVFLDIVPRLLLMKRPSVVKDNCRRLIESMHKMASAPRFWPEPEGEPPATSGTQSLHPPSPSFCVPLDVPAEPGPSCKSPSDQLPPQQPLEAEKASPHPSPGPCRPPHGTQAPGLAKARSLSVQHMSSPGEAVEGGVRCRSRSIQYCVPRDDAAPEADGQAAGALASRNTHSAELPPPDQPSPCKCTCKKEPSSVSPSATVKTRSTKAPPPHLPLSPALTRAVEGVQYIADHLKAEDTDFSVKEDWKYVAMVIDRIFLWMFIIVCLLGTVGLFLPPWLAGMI
Sequence of α4β2 nAChR (P17787 26-502): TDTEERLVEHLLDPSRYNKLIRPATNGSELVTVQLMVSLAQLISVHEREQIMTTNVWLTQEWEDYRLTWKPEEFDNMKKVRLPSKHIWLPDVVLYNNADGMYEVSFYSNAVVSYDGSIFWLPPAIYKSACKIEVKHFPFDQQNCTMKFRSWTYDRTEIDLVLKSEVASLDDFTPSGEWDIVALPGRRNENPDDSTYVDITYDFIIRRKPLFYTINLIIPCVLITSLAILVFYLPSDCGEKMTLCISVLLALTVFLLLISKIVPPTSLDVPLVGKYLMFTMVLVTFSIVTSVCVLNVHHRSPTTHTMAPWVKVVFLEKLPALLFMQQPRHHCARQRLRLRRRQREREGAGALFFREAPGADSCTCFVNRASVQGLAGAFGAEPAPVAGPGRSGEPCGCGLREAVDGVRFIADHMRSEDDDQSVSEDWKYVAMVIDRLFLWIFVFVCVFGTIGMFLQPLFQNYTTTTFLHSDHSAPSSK
T1 sequence (P36544 23-502): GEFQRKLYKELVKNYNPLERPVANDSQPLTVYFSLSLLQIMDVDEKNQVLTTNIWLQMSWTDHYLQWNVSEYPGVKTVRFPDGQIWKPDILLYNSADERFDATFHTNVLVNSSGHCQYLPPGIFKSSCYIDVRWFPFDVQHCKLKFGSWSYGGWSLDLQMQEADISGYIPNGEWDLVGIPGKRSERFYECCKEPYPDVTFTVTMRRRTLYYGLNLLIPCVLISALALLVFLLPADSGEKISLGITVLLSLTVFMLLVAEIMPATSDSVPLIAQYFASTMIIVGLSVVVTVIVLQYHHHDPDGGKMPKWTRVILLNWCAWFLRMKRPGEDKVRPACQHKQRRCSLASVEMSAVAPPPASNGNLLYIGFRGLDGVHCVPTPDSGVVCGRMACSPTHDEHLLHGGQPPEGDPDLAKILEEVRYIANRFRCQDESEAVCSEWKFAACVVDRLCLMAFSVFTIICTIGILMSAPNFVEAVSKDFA

Row | Compound | IC50 [1] [nM] | IC50 [2] [nM] | IC50 [3] [nM] | other results
1 | 20-methyl spirolide-G | 0.48 | 0.36 | 2.1 | 
2 | C=C1CCCC2OC(CC3=CC4/C(C)=C/CC(C)CC(/C=C(\C)C(O)C5CC(O)C(O)C(CCC(O)/C=C/C(C)=C/CCC6=NCCC(C3)C64C)O5)OC(=O)CC3CC(O)C(O3)C(O)C1)CC(O)C2O (stereo not shown) [Prorocentrolide] | 1660 | 186 |  | 
3 | portimine B |  |  |  | cytotoxic activities, order of magnitude [4]: ~10^-7 M
4 | C=C1CCCC2=NC[C@H](C)[C@@H](C)C[C@@]23CCC(C(=O)O)=C[C@@H]3[C@@H]2O[C@]3(C[C@H]4CCC[C@@]5(CC[C@@]6(O[C@@H](CC[C@@]6(C)O)C1)O5)O4)C[C@@H](C)[C@@H](O)[C@H]2O3 [Pinnatoxine-A] | 0.107 | 5.53 | 30.4 | antagonistic activity against human α7 nAChR, times more potent than towards muscle-type (α1)2β1γδ nAChR ([5]; selectivity α7 vs muscle-type): 50 times; antagonistic activity against human α7 nAChR, times more potent than against the human neuronal α4β2 nAChR subtype ([5]; selectivity α7 vs α4β2): ~ 300 times
5 | 28-O-palmitoyl ester of pinnatoxin-G [Palmitate PnTX-G] |  | 0.97 |  | 
6 | Gymnodimine-A |  | 2.8 | 0.9 | cytotoxic, concentration region [6]: micromolar region
7 | C=CC1=C[C@@H]2[C@@H]3O[C@]4(C[C@H]5CCC[C@@]6(CC[C@@]7(O[C@@H](CC[C@@]7(C)O)CC(=C)CCCC7=NC[C@H](C)[C@@H](C)C[C@@]72CC1)O6)O5)C[C@@H](C)[C@@H](O)[C@H]3O4 [Pinnatoxine-G] | 5.06 | 3.82 | 4.9 | 
8 | C=C1CCCC2=NCC(C)C(C)CC23CCC(C2C=C(C)C(=O)O2)=C(C)C3/C=C(\C)C(O)CC2CCC3(CCC4(OC(CCC4O)C1)O3)O2 (stereo not shown) [13,19-didesmethyl spirolide-C] | 0.25 | 0.2 | 6.26 | 
9 | C=C1CCCC2=NC[C@H](C)[C@@H](C)C[C@@]23CCC([C@@H]2CCC(=O)O2)=C[C@@H]3[C@@H]2O[C@@]3(C[C@@H](C)C[C@H]2O3)C[C@@H]2O[C@]3(CC[C@@]4(O[C@@H](CC[C@@]4(C)O)C1)O3)C[C@H](C)[C@@H]2O [pinnatoxin-F] |  |  |  | IC50 [7]: > 1000 nM
10 | C=C1CCCC2=NCC(C)C(C)CC23CCC(C2C=C(C)C(=O)O2)=C(C)C3/C=C(/C)C(O)CC2CCC3(CCC4(OC(CCC4(C)O)C1)O3)O2 (stereo not shown) [13-desmethyl spirolide-C] | 0.18 | 0.51 | 3.9 | 
